Where no end group is shown, it is not given here.
Key:
[1] = Pharmacokinetic and biodistribution study in mice bearing H460 xenografts; assay type: in vivo, SCID mice; settings: single i.v. dose 2 mg/kg
Procedure: SCID mice bearing H460 lung cancer xenografts (˜300 mm^3) were injected in the tail vein with either free drug doxorubicin (FD), liposomal doxorubicin (LD), or targeting (HSP1, HSP2 or HSP4) LD at a single dose of 2 mg/kg. At 1 hr and 24 hr post-injection, blood samples were collected through submaxillary punctures before mice were anaesthetized and sacrificed (three mice in each group). Then the mice were perfused with 50 ml PBS through heart, xenograft tumors and organs (brain, lung, heart, liver, and kidney) were dissected, weighted, and homogenized to calculate amount of doxorubicin in tissues. Total doxorubicin was quantified by measuring fluorescence at λEx/Em=485/590 nm using a spectrofluorometer (SPECTRAMAX® M5, Molecular Devices).

[2] = test system: human normal bronchial epithelial cell (NL20); test: Flow cytometry surface binding of FITC-conjugated peptides to normal cells; assay type: cell-based; settings: 20 μg/mL FITC-conjugated peptide, 4° C., 1 hour
Procedure: (§1) The lung cancer cell lines or control cells were collected using enzyme-free cell dissociation buffer, and then were incubated with 20 μg/mL FITC-conjugated HSP1, 2, 4 or control peptide at 4° C. for 1 hour. After washing, cells were analyzed by flow cytometer.

H460 cells [3] = test: Endocytosis assay (confocal microscopy); assay type: cell-based, human; settings: peptide-conjugated LSRB; 4° C. vs 37° C.
Procedure: H460 cells were incubated with HSP1, HSP2, HSP4-LSRB or LSRB for 10 min at 4° C. and 37° C. After being washed with PBS, the cells were fixed by 4% paraformaldehyde, blocked by 1% BSA, and then stained with WGA-ALEXA FLUOR® […] and DAPI for cell membrane and nucleus. All fluorescence images were obtained by confocal microscopy.

[4] = test system: H1993 adenocarcinoma cells; test: Immunofluorescence staining (IFA) of FITC-labeled peptides; assay type: cell-based, human; settings: 10 μg/mL FITC-labeled peptide, fixed H1993 cells
Procedure: (§2) H460 and H1993 cells were seeded and grown to about 50% confluence on cover slips. After the cells had been fixed with 2% paraformaldehyde, they were incubated with 10 μg/mL FITC-labeled HSP1, 2, 4 or control peptides. Then the slides were counterstained with 4′,6-diamidino-2-phenylindole (DAPI), mounted and examined under a Leica universal fluorescent microscope. The images were merged using the MetaMorph Image Analysis Software.

[5] = test system: H460 large cell carcinoma cells; test: as above; assay type: cell-based, human; settings: 10 μg/mL FITC-labeled peptide, fixed H460 cells
Procedure: as §2

H1993 cells = test: Uptake of targeting peptide-conjugated LSRB; assay type: cell-based, human; settings: peptide-conjugated liposomal SRB, time course, 37° C.
Procedure: (§3) H460 and H1993 cells were grown on a 24-well plate to 90% confluency, and 20, 10, 5, 2.5, 1.25, 0.625 μM HSP1, 2, 4-liposomal sulforhodamine B (LSRB) or LSRB in complete culture medium was added. The cells were incubated at 37° C., at the following time periods: 10, 30 min, 1, 2, 4, 8, 16 and 24 hours. At the indicated time point, cells were washed with PBS, and non-internalized LSRB on the cell surface was removed by adding 0.1 M Glycine, pH 2.8 for 10 min. Cells were then lysed with 200 μl 1% Triton X-100. Uptake of LD at low concentration in H1993 cells was performed using same protocol. For extraction of SRB or doxorubicin, 300 μl IPA (0.75 N HCl in isopropanol) was added to the lysate and shaken for 30 min. After the lysate was centrifuged at 12,000 rpm for 5 min, the amount of uptakes were determined by measuring Excitation/Emission wavelengths of fluorescence at 520/570 nm for SRB and 485/590 nm for doxorubicin using, a spectrofluorometer (SPECTRAMAX® M5, Molecular Devices). The concentration of SRB and doxambicin were calculated by interpolation using a standard curve.

H460 cells [6] = test: Uptake of targeting peptide-conjugated LSRB; assay type: cell-based, human; settings: for uptake of LSRB: peptide-conjugated LSRB at high concentration / higher doses; for liposome internalization compared to non-targeting LSRB: peptide-conjugated liposomal SRB, time course, 37° C.
Procedure: as §3

[7] = test system: H460 human lung large cell carcinoma xenografts; test: Ligand-targeted therapy, lung large cell carcinoma xenograft model; assay type: in vivo, SCID mice; settings: large tumor ~500 mm^3; 2 mg/kg/injection i.v. twice a week
Procedure: Female SCID mice 4-6 weeks of age were injected subcutaneously in the dorsolateral flank with human NSCLC cells. Mice with size-matched tumors (approximately 75 mm^3 for small tumor; 300 or 500 mm^3 for large tumor) were then randomly assigned to different treatment groups, and were injected intravenously with liposomal doxorubicin (LD), liposomal vinorelbine (LV), targeting peptide (HSP1, HSP2 or HSP4)-conjugated LD or LV, free doxorubicin (FD), free vinorelbine (FV) or equivalent volumes of saline. The dosages of drugs and administration time courses were described in figure legends depend on different experiment design. Mouse body weights and tumor sizes were measured twice a week. Tumor volumes were calculated according to this formula: length×(width)^2×0.52. Animal care was carried out in accordance with guidelines of Academia Sinica, Taipei, Taiwan. The protocol was approved by the Committee on the Ethics of Animal Experiments of Academia Sinica.

[8] = test system: human lung cancer cell lines (H460, H661, H1993, H441, CL1-5, A549, H520, H1688); test: Flow cytometry surface binding of FITC-conjugated peptides to lung cancer cell lines; assay type: cell-based; settings: 20 μg/mL FITC-conjugated peptide, 4° C., 1 hour; large cell, adeno-, squamous cell and small cell carcinoma lines
Procedure: as §1

H460 cells [9] = test: In vitro cytotoxicity assay of targeting peptide-conjugated LD (MTT); assay type: cell-based, human; settings: for decrease of the half maximal inhibitory concentration (IC50) compared to LD: peptide-conjugated LD at optimal peptide ratio, H460 cells; for reduction in IC50 in vitro: peptide-mediated DDS, summary statement
Procedure: H460 cells were seeded in 96-well plates (5000 cells/well) in complete culture media and were incubated overnight. Next day, cells were treated with varying concentration (0˜100 μM) of HSP1-LD, HSP2-LD, HSP4-LD or LD at 37° C. for 24 hours; After removal of the excess drug, the cells were washed once with PBS and continued to incubate with fresh culture medium for 48 h at 37° C. The cell viability was measured by adding 50 μl of MTT (Thiazolyl Blue Tetrazolium Bromide; Sigma-Aldrich) to each well of the plate. After 3.5 hours MTT incubation, 150 μl of Dimethyl sulfoxide (DMSO; Mallinckrodt Baker) was added to each well for 10 min, and the absorbance was determined with microplate reader (SPECTRAMAX® M5, Molecular Devices) at 540 nm.

[10] = test system: A549 adenocarcinoma orthotopic model; test: Combination therapy in orthotopic lung cancer model; assay type: in vivo, SCID mice; settings: HSP4-mediated combinatorial liposomes
Procedure: SCID mice (6-week-old) were anesthetized with isofloruance mixed with oxygen and placed in the right decubitus position. The skin overlying the left chest wall in the mid-axillary line was prepared with alcohol, and the underlying, chest wall and intercostal spaces were visualized. […] After tumor injection, the mice were turned to left decubitus position and observed for 45 to 60 min until fully recovered.
Luciferase-expressing cancer cells were imaged and quantified using IVIS200 system (Xenogen Corporation, Alameda, Calif.) at 10 minutes after i.p. injection of LUCWERIN™ (Caliper Life Sciences) before drug administration each time.

Molecule	half-life in plasma compared to liposomal formulations [1]	surface binding of FITC-labeled peptide (FACS) [2]	binding versus internalization compared to HSP2 and HSP4 (H460 cells [3])	binding of FITC-labeled peptide in cell IFA [4]	binding of FITC-labeled peptide in cell IFA [5]	liposome internalization compared to non-targeting LSRB (H1993 cells)	uptake of LSRB (H460 cells [6])	liposome internalization compared to non-targeting LSRB (H460 cells [6])	therapeutic efficacy of LD [7]	surface binding of FITC-labeled peptide (FACS) [8]	decrease of the half maximal inhibitory concentration (IC50) compared to LD (H460 cells [9])	reduction in IC50 in vitro (H460 cells [9])	adverse effect (body weight loss) [10]	intracellular delivery of LSRB (H460 cells [6]; peptide-conjugated LSRB at low LSRB concentrations)
COc1cccc2c1C(=O)c1c(O)c3c(c(O)c1C2=O)C[C@@](O)(C(=O)CO)C[C@@H]3O[C@H]1C[C@H](N)[C@H](O)[C@H](C)O1 [FD, doxorubicin]	much shorter half-life in plasma	–	–	–	–	–	–	–	–	–	–	–	–	–
GAMHLPWHMGTL (also: FITC label) [HSP1]	–	not to human normal bronchial epithelial cell	stronger ability at binding than internalization	can bind to a major group	can bind to a major group	enhanced liposome internalization	better uptake ability	enhanced liposome internalization	significantly improved therapeutic efficacy	prominent binding	12.5 fold	about 10 fold	–	–
KATEEQLKTVME (control peptide) [reference compound]	–	–	–	cannot	cannot	–	–	–	–	–	–	–	–	–
NNPWREMMYIEI [HSP4, NNPWREMMYIEI]	–	–	–	–	–	–	–	–	–	–	–	–	decreasing body weight loss	–
NPWEEQGYRYSM (also: FITC label) [HSP2]	–	not to human normal bronchial epithelial cell	–	can bind to a major group	can bind to a major group	enhanced liposome internalization	no difference from non-targeting LSRB	enhanced liposome internalization	significantly improved therapeutic efficacy	prominent binding	13 fold	about 10 fold	–	prominent intracellular delivery

— patent US9387257B2, “Lung cancer specific peptides for targeted drug delivery and molecular imaging” (Academia Sinica, priority 2014, dated 2016)
